Like-named read-outs stand apart in the source and are kept apart here. Each block holds one molecule with its values, some of them ahead of it.
What was measured:
[1] = tested on: L929 healthy mouse fibroblast cells; assay: Annexin V binding assay (flow cytometry) on L929; assay type: cell-based; settings: L929, IC50 dose of the compound for the cancer cell line, 24 h
Procedure: (§1) Approximately 5 × 10^5 seeds of each cancer cell were seeded into six-well plates and allowed to adhere overnight. […] Cells harvested after trypsinization were suspended in PBS containing at least 1% FBS. The manufacturer’s instructions were then followed, and the Annexin V and dead cell reagent were mixed with the cells. Afterward, the percentage of dead, viable, early and late apoptotic cells was determined using the muse cell analyzer (Millipore) device.

FRAP antioxidant assay = settings: trolox standard curve
Procedure: The FRAP method was used to determine the antioxidant power of compounds. This method, which determines the reducing power of compounds, was developed by Benzie and Strain.[48] Fe(III)–TPTZ complex is formed as a result of the reaction of Fe(III) with tripyridyltriazine (TPTZ), and this complex is reduced to the Fe(II)–TPTZ complex with the antioxidant in the environment. The color of this complex is dark blue and gives the maximum absorbance at 593 nm.[48] Incubation is performed for up to 30 min to complete the reaction, and the correct absorbance values were read. The FRAP values of the samples were calculated as “μmol trolox equiv/g sample” with the help of the standard curve obtained using methanol–trolox standard solutions (0; 0.2; 0.4; 0.6; 0.8; and 1.0 μmol/mL) which were used as the positive control.[49] […]

[2] = tested on: C6 rat glial tumor cell line; assay: MTT cell viability assay on C6; assay type: cell-based; settings: 24 h incubation
Excerpt: (§2) 96-well plates were used for seeding cells. […] All compounds were run in three repetitions.

[3] = tested on: MCF7 human breast adenocarcinoma cell line; assay: MTT cell viability assay on MCF7; assay type: cell-based
Excerpt: as §2

HT29 cell line [4] = assay: Annexin V binding assay (flow cytometry) on HT29; assay type: cell-based, human; settings: HT29, IC50 dose, 24 h
Procedure: as §1

hCA I = hCA I (Homo sapiens, UniProt P00915); assay: CA esterase activity method, hCA I; assay type: biochemical; settings: for Effect on hCA I isoenzyme activity: Table S3; for IC50: esterase activity, p-nitrophenyl acetate substrate; for Effect on hCA I isoenzyme activity: key: +: active; -: not effect
hCA I, sequence (P00915 whole entry): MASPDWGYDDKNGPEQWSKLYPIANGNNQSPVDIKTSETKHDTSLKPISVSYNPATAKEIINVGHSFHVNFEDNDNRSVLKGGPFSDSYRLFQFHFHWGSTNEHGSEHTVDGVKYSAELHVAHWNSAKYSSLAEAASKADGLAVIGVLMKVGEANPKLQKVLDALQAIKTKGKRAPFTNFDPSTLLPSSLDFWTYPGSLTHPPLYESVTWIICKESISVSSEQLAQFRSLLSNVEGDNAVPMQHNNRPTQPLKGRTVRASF
Excerpt: (§3) The method used to spectrophotometrically detect the antiepileptic, antiglaucoma, and […] effects of the obtained compounds in vitro is the esterase activity method. This method relies on the esterase activity of CA for the hydrolysis of p-nitrophenyl acetate as a substrate, which is a part of the reaction mechanism involving p-nitrophenol or p-nitrophenolate.

hCA II = hCA II (Homo sapiens, UniProt P00918); assay: CA esterase activity method, hCA II; assay type: biochemical; settings: for Effect on hCA II isoenzyme activity: Table S3; for IC50: esterase activity, p-nitrophenyl acetate substrate; for Effect on hCA II isoenzyme activity: key: +: active; -: not effect
Excerpt: as §3

[5] = tested on: L929 mouse fibroblast cell line; assay: MTT cell viability assay on L929; settings: for toxicity in L929 healthy cell line: 100 μM, 24 h, triplicate; for IC50: read-out: IC50 L929
Procedure: (§5) Human breast adenocarcinoma cell line (MCF7), rat glial tumor cell line (C6), healthy mouse fibroblast cell line (L929), and colon cancer (HT29) cell line were purchased from ATCC (American type culture collection) and studied.
(§6) The cytotoxic effects of all compounds by MTT analysis on L929, HT29, MCF7, and C6 cell lines were investigated. 96-well plates were used for seeding cells. Approximately 1 × 10^4 cells were seeded in each well. Cells were allowed to adhere for 24 h, and then the compounds were applied at different concentrations. All compounds were run in three repetitions. Wells with a maximum of 100 μM compounds were incubated for 24 h. Three wells without compounds treated with only DMSO (with total volume of % 0.5) were used as negative controls, and cisplatin was used as a positive control. […] After the MTT interaction, the FRAP wells were emptied, and DMSO solution was placed in them. The formazan crystals formed were dissolved with this solution, and the number of viable cells in each well was determined by color change.

[6] = MTT cell viability assay on L929; settings: mouse, L929 fibroblast cells
Procedure: as §5, §6

HT29 cell line [7] = assay: Cell cycle (DNA content) assay on HT29; assay type: cell-based, human; settings: colon cancer (HT29), IC50 dose
Procedure: (§4) DNA content (cell cycle) analyses were performed with the MUSE flow cytometry device. When the IC50 results obtained were evaluated, compounds 3a and 3b caused selective toxicity in the HT29 and C6 cancer cell lines compared to L929, respectively. Therefore, the main pathways of compounds 3a and 3b in cells were determined with the MUSE (cell cycle) kit.

[8] = tested on: HT29 colon cancer cell line; assay: MTT cell viability assay on HT29; assay type: cell-based, human
Excerpt: as §2

C6 cell line [9] = assay: Annexin V binding assay (flow cytometry) on C6; assay type: cell-based, rat; settings: C6, IC50 dose, 24 h
Procedure: as §1

C6 cell line [10] = assay: Cell cycle (DNA content) assay on C6; assay type: cell-based, rat; settings: glioblastoma (C6), IC50 dose
Procedure: as §4

[11] = Homo sapiens, MCF7, 24 h incubation
[12] = Homo sapiens, HT-29, 24 h incubation

Molecule: CCOC(Cn1ccnc1)c1ccc(Cl)cc1 (stereo not drawn) [Compound 10, 1-(2-(4-Chlorophenyl)-2-ethoxyethyl)-1H-imidazole]
FRAP (FRAP antioxidant assay): 0.20 ± 0.03 μmol trolox equiv/g
Effect on hCA I isoenzyme activity (hCA I): +
Effect on hCA II isoenzyme activity (hCA II): +

Molecule: CCCOC(Cn1ccnc1)c1ccc(Cl)cc1 (stereo not drawn) [Compound 11, 1-(2-(4-Chlorophenyl)-2-propoxyethyl)-1H-imidazole]
FRAP (FRAP antioxidant assay): 0.31 ± 0.07 μmol trolox equiv/g
Effect on hCA I isoenzyme activity (hCA I): +
Effect on hCA II isoenzyme activity (hCA II): +

Molecule: C=CCOC(Cn1ccnc1)c1ccc(Cl)cc1 (stereo not drawn) [Compound 12, 1-(2-(Allyloxy)-2-(4-chlorophenyl)ethyl)-1H-imidazole]
FRAP (FRAP antioxidant assay): 0.28 ± 0.04 μmol trolox equiv/g
Effect on hCA I isoenzyme activity (hCA I): +
Effect on hCA II isoenzyme activity (hCA II): +

Molecule: CCOC(Cn1ccnc1)c1ccc(OC)cc1 (stereo not drawn) [Compound 13, 1-(2-Ethoxy-2-(4-methoxyphenyl)ethyl)-1H-imidazole]
FRAP (FRAP antioxidant assay): 0.15 ± 0.06 μmol trolox equiv/g
Effect on hCA I isoenzyme activity (hCA I): +
Effect on hCA II isoenzyme activity (hCA II): +

Molecule: CCCOC(Cn1ccnc1)c1ccc(OC)cc1 (stereo not drawn) [Compound 14, 1-(2-(4-Methoxyphenyl)-2-propoxyethyl)-1H-imidazole]
FRAP (FRAP antioxidant assay): 0.28 ± 0.01 μmol trolox equiv/g
Effect on hCA I isoenzyme activity (hCA I): +
Effect on hCA II isoenzyme activity (hCA II): +

Molecule: C=CCOC(Cn1ccnc1)c1ccc(OC)cc1 (stereo not drawn) [Compound 15, 1-(2-(Allyloxy)-2-(4-methoxyphenyl)ethyl)-1H-imidazole]
FRAP (FRAP antioxidant assay): 0.31 ± 0.03 μmol trolox equiv/g
Effect on hCA I isoenzyme activity (hCA I): +
Effect on hCA II isoenzyme activity (hCA II): +

Molecule: Clc1ccc(COC(Cn2ccnc2)c2ccc(Cl)cc2)cc1 (stereo not drawn) [Compound 20, 1-(2-((4-Chlorobenzyl)oxy)-2-(4-chlorophenyl)ethyl)-1H-imidazole]
FRAP (FRAP antioxidant assay): 0.31 ± 0.06 μmol trolox equiv/g
IC50 (hCA I): 4.13 nM
IC50 (hCA II): 10.9 nM

Molecule: Cc1ccc(COC(Cn2ccnc2)c2ccc(Cl)cc2)cc1 (stereo not drawn) [Compound 21, 1-(2-(4-Chlorophenyl)-2-((4-methylbenzyl)oxy)ethyl)-1H-imidazole]
FRAP (FRAP antioxidant assay): 0.25 ± 0.01 μmol trolox equiv/g
IC50 (hCA I): 9.83 nM
IC50 (hCA II): 7.9 nM

Molecule: COc1ccc(C(Cn2ccnc2)OCc2ccccc2)cc1 (stereo not drawn) [Compound 22, 1-(2-(Benzyloxy)-2-(4-methoxyphenyl)ethyl)-1H-imidazole]
FRAP (FRAP antioxidant assay): 0.40 ± 0.05 μmol trolox equiv/g

Molecule: COc1ccc(C(Cn2ccnc2)OCc2ccc(Cl)cc2)cc1 (stereo not drawn) [Compound 23, 1-(2-((4-Chlorobenzyl)oxy)-2-(4-methoxyphenyl)ethyl)-1H-imidazole]
FRAP (FRAP antioxidant assay): 0.45 ± 0.04 μmol trolox equiv/g
melting point: 104 to 105 °C
IC50 (hCA I): 7.49 nM
IC50 (hCA II): 5.65 nM

Molecule: COc1ccc(C(Cn2ccnc2)OCc2ccc(C)cc2)cc1 (stereo not drawn) [Compound 24, 1-(2-(4-Methoxyphenyl)-2-((4-methylbenzyl)oxy)ethyl)-1H-imidazole]
FRAP (FRAP antioxidant assay): 0.46 ± 0.06 μmol trolox equiv/g
IC50 (hCA I): 4.77 nM
IC50 (hCA II): 9.66 nM

Molecule: N.N.[Cl][Pt][Cl] [cisplatin, reference compound]
IC50 [2]: 88.2 ± 12.1 µM
IC50 ([3]; 24 h incubation): 26.8 ± 11 µM
IC50 ([5]; 24 h incubation, MTT): 277.7 ± 1.09 µM
IC50 ([8]; 24 h incubation): 68.2 ± 3.39 µM

Molecule: vitamin E [reference compound]
FRAP (FRAP antioxidant assay): 1.00 ± 0.04 μmol trolox equiv/g

Continued, in another order:

IC50 ([2]; Rattus norvegicus, 24 h): 15.76 ± 0.08 µM
IC50 [3, 11]: 161 ± 15.5 µM
Effect on hCA I isoenzyme activity (hCA I): -
Effect on hCA II isoenzyme activity (hCA II): -
IC50 [8, 12]: 20.9 ± 1.02 µM
Molecule: O=C(Cn1ccnc1)c1ccccc1 [Compound 3a, 2-(1H-Imidazol-1-yl)-1-phenylethanone]
Apoptosis profile: Live [1]: 98.37%
FRAP (FRAP antioxidant assay): 0.18 ± 0.07 μmol trolox equiv/g
Apoptosis profile: Early Apop. (HT29 cell line [4]): 7.83%
Apoptosis profile: Late Apop./Dead (HT29 cell line [4]): 22.56%
Apoptosis profile: Live (HT29 cell line [4]): 60.77%
toxicity in L929 healthy cell line ([5]; MTT): not toxic
IC50 ([5]; Mus musculus, L929, 24 h): 174 ± 10.1 µM
viability at 24 h, 100 μM [6]: ≥ 50%
phase in which the cell cycle stopped (HT29 cell line [7]): G0/G1 phase

IC50 [2]: 10.7 ± 0.38 µM
IC50 ([2]; Rattus norvegicus, 24 h): 10.7 ± 0.38 µM
IC50 [3, 11]: 117 ± 14.5 µM
Effect on hCA I isoenzyme activity (hCA I): -
Effect on hCA II isoenzyme activity (hCA II): -
IC50 [8, 12]: 59.6 ± 5.73 µM
Molecule: O=C(Cn1ccnc1)c1ccc(Cl)cc1 [Compound 3b, 1-(4-Chlorophenyl)-2-(1H-imidazol-1-yl)ethanone]
Apoptosis profile: Early Apop. (C6 cell line [9]): 14.96%
Apoptosis profile: Late Apop./Dead (C6 cell line [9]): 18.33%
Apoptosis profile: Live (C6 cell line [9]): 65.46%
Apoptosis profile: Live [1]: 99.17%
FRAP (FRAP antioxidant assay): 0.20 ± 0.04 μmol trolox equiv/g
phase in which the cell cycle stopped (C6 cell line [10]): G0/G1 phase
toxicity in L929 healthy cell line ([5]; MTT): not toxic
IC50 ([5]; Mus musculus, L929, 24 h): 138 ± 4.06 µM
viability at 24 h, 100 μM [6]: ≥ 50%

Effect on hCA I isoenzyme activity (hCA I): -
Effect on hCA II isoenzyme activity (hCA II): -
Molecule: COc1ccc(C(=O)Cn2ccnc2)cc1 [Compound 3c, 2-(1H-Imidazol-1-yl)-1-(4-methoxyphenyl)ethanone]
FRAP (FRAP antioxidant assay): 0.21 ± 0.03 μmol trolox equiv/g

IC50 ([2]; Rattus norvegicus, 24 h): 35.2 ± 0.55 µM
IC50 [3, 11]: 104 ± 15.3 µM
Effect on hCA I isoenzyme activity (hCA I): +
Effect on hCA II isoenzyme activity (hCA II): +
IC50 [8, 12]: 74.6 ± 6.67 µM
Molecule: OC(Cn1ccnc1)c1ccccc1 (stereo not drawn) [Compound 4a, 2-(1H-Imidazol-1-yl)-1-phenylethanol]
FRAP (FRAP antioxidant assay): 0.31 ± 0.01 μmol trolox equiv/g
toxicity in L929 healthy cell line ([5]; MTT): not toxic
IC50 ([5]; Mus musculus, L929, 24 h): 166 ± 11.9 µM
viability at 24 h, 100 μM [6]: ≥ 50%

IC50 ([2]; Rattus norvegicus, 24 h): 20.1 ± 0.32 µM
IC50 [3, 11]: 84.9 ± 21.5 µM
Effect on hCA I isoenzyme activity (hCA I): +
Effect on hCA II isoenzyme activity (hCA II): +
IC50 [8, 12]: 44.1 ± 4.27 µM
Molecule: OC(Cn1ccnc1)c1ccc(Cl)cc1 (stereo not drawn) [Compound 4b, 1-(4-Chlorophenyl)-2-(1H-imidazol-1-yl)ethanol]
FRAP (FRAP antioxidant assay): 0.25 ± 0.02 μmol trolox equiv/g
toxicity in L929 healthy cell line ([5]; MTT): not toxic
IC50 ([5]; Mus musculus, L929, 24 h): 105 ± 10.1 µM
viability at 24 h, 100 μM [6]: ≥ 50%

IC50 ([2]; Rattus norvegicus, 24 h): 26.1 ± 5.7 µM
IC50 [3, 11]: 122 ± 28.8 µM
Effect on hCA I isoenzyme activity (hCA I): +
Effect on hCA II isoenzyme activity (hCA II): +
IC50 [8, 12]: 102 ± 11.5 µM
Molecule: CCOC(Cn1ccnc1)c1ccccc1 (stereo not drawn) [Compound 7, 1-(2-Ethoxy-2-phenylethyl)-1H-imidazole]
FRAP (FRAP antioxidant assay): 0.10 ± 0.08 μmol trolox equiv/g
toxicity in L929 healthy cell line ([5]; MTT): not toxic
IC50 ([5]; Mus musculus, L929, 24 h): 173 ± 16.6 µM
viability at 24 h, 100 μM [6]: ≥ 50%

Effect on hCA I isoenzyme activity (hCA I): +
Effect on hCA II isoenzyme activity (hCA II): +
Molecule: CCCOC(Cn1ccnc1)c1ccccc1 (stereo not drawn) [Compound 8, 1-(2-Phenyl-2-propoxyethyl)-1H-imidazole]
FRAP (FRAP antioxidant assay): 0.19 ± 0.02 μmol trolox equiv/g

Effect on hCA I isoenzyme activity (hCA I): +
Effect on hCA II isoenzyme activity (hCA II): +
Molecule: C=CCOC(Cn1ccnc1)c1ccccc1 (stereo not drawn) [Compound 9, 1-(2-(Allyloxy)-2-phenylethyl)-1H-imidazole]
FRAP (FRAP antioxidant assay): 0.12 ± 0.01 μmol trolox equiv/g

Effect on hCA I isoenzyme activity (hCA I): +
Effect on hCA II isoenzyme activity (hCA II): +
Molecule: c1ccc(COC(Cn2ccnc2)c2ccccc2)cc1 (stereo not drawn) [Compound 16, 1-(2-(Benzyloxy)-2-phenylethyl)-1H-imidazole]
FRAP (FRAP antioxidant assay): 0.41 ± 0.03 μmol trolox equiv/g

IC50 (hCA I): 13.2 nM
IC50 (hCA II): 14.8 nM
Molecule: Clc1ccc(COC(Cn2ccnc2)c2ccccc2)cc1 (stereo not drawn) [Compound 17, 1-(2-((4-Chlorobenzyl)oxy)-2-phenylethyl)-1H-imidazole]
FRAP (FRAP antioxidant assay): 0.35 ± 0.07 μmol trolox equiv/g

Effect on hCA I isoenzyme activity (hCA I): +
Effect on hCA II isoenzyme activity (hCA II): +
Molecule: Cc1ccc(COC(Cn2ccnc2)c2ccccc2)cc1 (stereo not drawn) [Compound 18, 1-(2-((4-Methylbenzyl)oxy)-2-phenylethyl)-1H-imidazole]
FRAP (FRAP antioxidant assay): 0.30 ± 0.04 μmol trolox equiv/g

IC50 (hCA I): 15.7 nM
IC50 (hCA II): 11.7 nM
Molecule: Clc1ccc(C(Cn2ccnc2)OCc2ccccc2)cc1 (stereo not drawn) [Compound 19, 1-(2-(Benzyloxy)-2-(4-chlorophenyl)ethyl)-1H-imidazole]
FRAP (FRAP antioxidant assay): 0.27 ± 0.01 μmol trolox equiv/g
